Measured values from patent US8338380B2, “Use of the peptide RFMWMR as a therapeutic agent” (priority 2007, dated 2012).

Experiments:
[1] = system: Primary Human endothelial cells (HUVEC); experiment: Endothelial cell migration assay; assay type: cell-based; details: 10 micrograms per ml, 22 hours
[2] = Cytotoxicity in CEM-SS cells (MTS) of the HIV-1 experiments; details: human
RAW 264.7 cells = experiment: Phagocytosis assay (Fluorescein-labeled Escherichia coli); assay type: cell-based, Mouse; details: 10 micrograms per ml, 30 min preincubation, 60 min ingestion, flow cytometry
A549 cells [3] = experiment: Apoptosis induction assay (Annexin-5); assay type: cell-based, Human; details: apoptosis in A549 cells, 10 micrograms per ml, 24 hours
HUVEC = experiment: Endothelial tube formation assay; assay type: cell-based, Human; details: 10 micrograms per ml, 20 hours, average tubule length
Description: Positive control was vehicle only.

[4] = Cytotoxicity in MRC-5 cells (CellTiter 96); details: human, MRC-5 cells (embryonal lung fibroblasts)
[5] = Cytotoxicity in HepG2-2.2.15 cells (dye uptake assay); assay type: cell-based; details: human, peptide 10 micrograms per ml, read-out: % Cell Viability
[6] = system: Human Peripheral Blood Mononuclear Cells (PBMC); experiment: T cell proliferation assay (PHA, 3H-thymidine); assay type: cell-based; details: 10 micrograms per ml, 3 days, 3H-thymidine incorporation
HCMV strain AD169 = experiment: HCMV plaque reduction assay in MRC-5 cells; details: HCMV AD169 in MRC-5 cells; peptide 10 micrograms per ml; 7-10 days
Pseudomonas aeruginosa = Pseudomonas aeruginosa assay; assay type: cell-based; details: peptide 10 micrograms per ml, macroscopic growth, read visually
[7] = system: hepatitis B virus (HBV) ayw strain; experiment: HBV experimental assay system (secreted HBV DNA, TaqMan PCR); assay type: cell-based; details: HepG2-2.2.15 cells; peptide 10 micrograms per ml; six days; HBV DNA in supernatant
Experimental: HepG2-2.2.15 is a stable cell line containing the hepatitis B virus (HBV) ayw strain genome (ATCC Cat. No. CRL-11997). Antiviral compounds blocking any late step of viral replication such as transcription, translation, pregenome encapsidation, reverse transcription, particle assembly and release can be identified and characterized using this cell line.
HepG2-2.2.15 cells were plated in 96-well microtiter plates. After 16-24 hours the confluent monolayer of HepG2-2.2.15 cells was washed and the medium was replaced with complete medium containing test peptide—10 micrograms per ml—in duplicate. […] Three days later the culture medium was replaced with fresh medium containing the peptide. Six days following the initial administration of the peptide, the cell culture supernatants was collected, treated with pronase and DNAse and then used in a real-time quantitative TaqMan PCR assay. The PCR-amplified HBV DNA was detected in real-time by monitoring increases in fluorescence signals that result from the exonucleolytic degradation of a quenched fluorescence probe molecule that hybridizes to the amplified HBV DNA. For each PCR amplification, a standard curve was simultaneously generated using dilutions of purified HBV DNA. Antiviral activity was calculated from the reduction in HBV DNA levels (% virus control). […]

[8] = system: Human Peripheral Blood Mononuclear Cells (PBMC); experiment: B cell proliferation assay (SAC plus Interleukin-2, 3H-thymidine); assay type: cell-based; details: 10 micrograms per ml, 3 days, 3H-thymidine incorporation
Interleukin-4 (IL-4) = experiment: Th1/Th2 cytokine profiling assay: IL-4; assay type: cell-based; details: Ovalbumin-restimulated spleen cells of immunized Balb/c mice; 10 micrograms per ml; 72 hours
Interleukin-2 (IL-2) = experiment: Th1/Th2 cytokine profiling assay: IL-2; assay type: cell-based; details: Ovalbumin-restimulated spleen cells of immunized Balb/c mice; 10 micrograms per ml; 72 hours
A549 cells [9] = experiment: Propidium iodide cell cycle assay; assay type: cell-based, Human; details: 10 micrograms per ml, 24 hours, FACS
Streptococcus pneumoniae = Streptococcus pneumoniae assay; assay type: cell-based; details: peptide 10 micrograms per ml, macroscopic growth, read visually
Interferon-γ (IFN-γ) = experiment: Th1/Th2 cytokine profiling assay: IFN-γ; assay type: cell-based; details: Ovalbumin-restimulated spleen cells of immunized Balb/c mice; 10 micrograms per ml; 72 hours
Interleukin-5 (IL-5) = experiment: Th1/Th2 cytokine profiling assay: IL-5; assay type: cell-based; details: Ovalbumin-restimulated spleen cells of immunized Balb/c mice; 10 micrograms per ml; 72 hours
MRSA = experiment: Methicillin resistant Staphylococcus aureus (MRSA) assay; assay type: cell-based; details: peptide 10 micrograms per ml, macroscopic growth, read visually
A549 cells [10] = experiment: Apoptosis prevention assay (C2 ceramide, Annexin-5); assay type: cell-based, Human; details: A549 cells pretreated 30 min with 10 micrograms per ml, then C2 ceramide
[11] = system: Tumor Necrosis Factor-α (TNF-α); experiment: Th1/Th2 cytokine profiling assay: TNF-α; assay type: cell-based; details: Ovalbumin-restimulated spleen cells of immunized Balb/c mice; 10 micrograms per ml; 72 hours
HIV-1IIIB = experiment: HIV-1 antiviral assay (CPE reduction, MTS); assay type: cell-based; details: peptide 10 micrograms per ml, 6 days post-infection
TNF alpha = TNF alpha production assay in LPS-stimulated macrophages (ELISA); assay type: cell-based, human; details: PBMC-derived macrophages, 10 micrograms per ml 30 min before lipopolysaccharide 200 ng/ml, overnight
Description: Not stimulated macrophages served as negative background control.

Ac-RFMWMR-NH2 [Ac-Arg-Phe-Met-Trp-Met-Arg-NH2]
% inhibition of migration [1]: −15%
viability at 10 micrograms per ml [2]: 100%
% of control phagocytosis (RAW 264.7 cells): 105.9%
% of induction (A549 cells [3]): 1.2%
% inhibition of tube formation (HUVEC): 23%
viability at 144 h [4]: 84%
viability at 144 h, 10 micrograms per ml [5]: 100%
% of PHA induced control [6]: 109.1%
% plaque reduction (HCMV strain AD169): 0.0%
% inhibition (Pseudomonas aeruginosa): 0.0%
% inhibition of HBV replication in HEP G2 cells [7]: 46.8%
% of SAC/IL2 induced control [8]: 106.3%
IL-4 spleen cells; TH2 response (% of control) (Interleukin-4 (IL-4)): 156.2 % of control
IL-2 spleen cells (% of control) (Interleukin-2 (IL-2)): 156.5 % of control
Cell cycle analysis G0/G1 (A549 cells [9]): 59.2
Cell cycle analysis G2/M (A549 cells [9]): 8.2
Cell cycle analysis S (A549 cells [9]): 32.7
% inhibition (Streptococcus pneumoniae): 0.0%
INFγ spleen cells; TH1 response (% of control) (Interferon-γ (IFN-γ)): 218.6 % of control
IL-5 spleen cells; TH2 response (% of control) (Interleukin-5 (IL-5)): 93.8 % of control
% inhibition (MRSA): 0.0%
% prevention of ceramide induced apoptosis (A549 cells [10]): 0.0%
TNF-a spleen cells; TH1 response (% of control) [11]: 118.8 % of control
% CPE reduction in HIV-1 infected CEM-SS cells (HIV-1IIIB): 0.0%
% of LPS induction (TNF alpha): 149.8%
